In EPA's ToxRefDB 2:

What was measured:
[1] = system: mouse; conditions: Carcinogenicity; b6c3f1; Oral; Feed; dose end: 24 month; group: systemic; systemic / in life observation / body weight / body weight gain
[2] = system: dog; conditions: Subchronic oral toxicity in nonrodent, beagle, Feed, dose end: 13 week, group: systemic
[3] = system: rabbit; conditions: Prenatal developmental toxicity study, new zealand white, Oral, Gavage/Intubation, dose end: 19 GD
[4] = system: rat; conditions: Combined chronic toxicity/carcinogenicity, sprague dawley, Oral, Feed, dose end: 104 week, group: systemic
[5] = system: rat; conditions: Prenatal developmental toxicity study, sprague dawley, Oral, Gavage/Intubation, dose end: 15 GD
[6] = system: mouse; conditions: Carcinogenicity, cd1, Oral, Feed, dose end: 91 week, group: systemic
[7] = system: dog; conditions: Chronic toxicity; beagle; Oral; Feed; dose end: 52 week; group: systemic; systemic / in life observation / clinical signs / [other] + systemic / in life observation / clinical signs / tachycardia + systemic / …
[8] = system: rabbit; conditions: Prenatal developmental toxicity study, new zealand white, Oral, Gavage/Intubation, dose end: 19 GD; remark: listed apart in the source
[9] = system: rat; conditions: Subchronic oral toxicity in rodents, Tif: RAIf (SPF), Feed, dose end: 13 week, group: systemic, systemic / in life observation / body weight / body weight + systemic / in life observation / body weight / body weight gain + systemic / …
[10] = system: rat; conditions: Subchronic oral toxicity in rodents, other, Feed, dose end: 92 day, group: systemic
[11] = system: rat; conditions: Combined chronic toxicity/carcinogenicity; sprague dawley; Oral; Feed; dose end: 2 year; group: systemic; systemic / in life observation / body weight / body weight gain
[12] = system: dog; conditions: Chronic toxicity; beagle; Oral; Feed; dose end: 52 week; group: systemic; systemic / pathology gross / heart / discolored + systemic / pathology gross / heart / distended + systemic / pathology gross / heart / …
[13] = system: dog; conditions: Sub-acute repeat dose toxicity, beagle, Oral, Gavage/Intubation, dose end: 1 month, group: systemic
[14] = system: rat; conditions: Chronic toxicity, sprague dawley, Oral, Gavage/Intubation, dose end: 6 month, group: systemic
[15] = system: rat; conditions: Prenatal developmental toxicity study, sprague dawley, Oral, Gavage/Intubation, dose end: 17 GD
[16] = system: rabbit; conditions: Prenatal developmental toxicity study; new zealand white; Oral; Gavage/Intubation; dose end: 19 GD; group: maternal; reproductive / reproductive performance / postimplantation loss / postimplantation loss + reproductive / reproductive performance / …
[17] = system: rat; conditions: Fertility (Segment I), sprague dawley, Oral, Gavage/Intubation, dose end: 7 GD
[18] = system: rat; conditions: Fertility (Segment I), sprague dawley, Oral, Gavage/Intubation, dose end: 7 GD; remark: listed apart in the source
[19] = system: rat; conditions: Prenatal developmental toxicity study, sprague dawley, Oral, Gavage/Intubation, dose end: 17 GD; remark: listed apart in the source
[20] = system: dog; conditions: Chronic toxicity, beagle, Oral, Gavage/Intubation, dose end: 6 month, group: systemic
[21] = system: rabbit; conditions: Prenatal developmental toxicity study; new zealand white; Oral; Gavage/Intubation; dose end: 19 GD; group: maternal; reproductive / reproductive performance / resorptions / resorptions + systemic / in life observation / body weight / body weight gain + …
[22] = system: rat; conditions: Sub-acute repeat dose toxicity, sprague dawley, Oral, Gavage/Intubation, dose end: 1 month, group: systemic
[23] = system: rat; conditions: Prenatal developmental toxicity study, sprague dawley, Oral, Gavage/Intubation, dose end: 17 GD, group: maternal
[24] = system: mouse; conditions: Carcinogenicity, b6c3f1, Oral, Feed, dose end: 78 week, group: systemic
[25] = system: rat; conditions: Carcinogenicity, other, Oral, Feed, dose end: 78 week, group: systemic
[26] = systemic / pathology microscopic / kidney / basophilia + systemic / pathology microscopic / kidney / hyperplasia + systemic / hematology / …
[27] = group: developmental, developmental / developmental malformation / bone / delayed ossification
[28] = group: maternal, reproductive / reproductive performance / resorptions / resorptions + systemic / in life observation / body weight / body weight + systemic…
[29] = systemic / in life observation / body weight / body weight gain + systemic / in life observation / food consumption / food consumption
[30] = systemic / in life observation / body weight / body weight gain + systemic / in life observation / food consumption / food consumption + …
[31] = group: developmental, developmental / developmental malformation / bone / incomplete ossification
[32] = group: maternal, reproductive / reproductive performance / aborted / aborted + systemic / in life observation / body weight / body weight gain + systemic / …
[33] = systemic / in life observation / body weight / body weight gain + systemic / hematology / erythrocyte (rbc) count differential / erythrocyte…
[34] = group: maternal, reproductive / reproductive performance / resorptions / resorptions + systemic / in life observation / clinical signs / discharge on …
[35] = systemic / hematology / leukocyte (wbc) count differential / leukocyte (wbc)
[36] = systemic / clinical chemistry / alanine aminotransferase (alt/sgpt) / alanine aminotransferase (alt/sgpt) + systemic / clinical chemistry / …
[37] = systemic / hematology / erythrocyte (rbc) count differential / erythrocyte (rbc) + systemic / hematology / hematocrit (hct) / hematocrit (…
[38] = systemic / pathology gross / uterus / dilatation
[39] = systemic / pathology microscopic / parathyroid gland / adenoma + systemic / clinical chemistry / alanine aminotransferase (alt/sgpt) / …
[40] = group: developmental, systemic / in life observation / body weight / fetal weight
[41] = group: maternal, reproductive / reproductive performance / aborted / aborted + reproductive / reproductive performance / gestation index / gestation index + …
[42] = group: maternal, reproductive / reproductive performance / estrous cycle / corpora lutea + reproductive / reproductive performance / implantations / …
[43] = group: parental, systemic / in life observation / body weight / body weight gain + systemic / in life observation / food consumption / food consumption
[44] = group: maternal, reproductive / reproductive performance / estrous cycle / abnormal + reproductive / reproductive performance / estrous cycle / corpora lutea…
[45] = group: parental, systemic / in life observation / body weight / body weight + systemic / in life observation / body weight / body weight gain + systemic / in…
[46] = group: maternal, reproductive / reproductive performance / aborted / aborted + reproductive / reproductive performance / postimplantation loss / …
[47] = systemic / in life observation / body weight / body weight + systemic / organ weight / thymus / absolute + systemic / organ weight / thymus…
[48] = systemic / in life observation / body weight / body weight
[49] = systemic / in life observation / body weight / body weight + systemic / pathology microscopic / liver / carcinoma + systemic / in life …
[50] = systemic / in life observation / body weight / body weight + systemic / pathology microscopic / testes / atrophy
[51] = systemic / pathology microscopic / adrenal gland / adenoma + systemic / in life observation / body weight / body weight + systemic / in life…

Cc1c(C(=O)O)c(O)cc2c1C(=O)c1c(O)c([C@@H]3O[C@H](CO)[C@@H](O)[C@H](O)[C@H]3O)c(O)c(O)c1C2=O [Carminic acid]
LEL [1]: 4500 mg/kg/day | LOAEL [1]: > 9000 mg/kg/day | NEL [1]: < 4500 mg/kg/day | NOAEL [1]: ≥ 9000 mg/kg/day

CCNc1nc(Cl)nc(NC(C)C)n1 [Atrazine]
LOAEL ([2]; systemic / pathology microscopic / kidney / basophilia + systemic / pathology microscopic / kidney / hyperplasia): 28.9 mg/kg/day | LEL [2, 26]: 28.9 mg/kg/day | NEL [2, 26]: 3.71 mg/kg/day | NOAEL [2, 26]: 3.71 mg/kg/day | LEL [3, 27]: 75 mg/kg/day | LOAEL [3, 27]: 75 mg/kg/day | NEL [3, 27]: 5 mg/kg/day | NOAEL [3, 27]: 5 mg/kg/day | LEL [3, 28]: 75 mg/kg/day | LOAEL [3, 28]: 75 mg/kg/day | NEL [3, 28]: 5 mg/kg/day | NOAEL [3, 28]: 5 mg/kg/day | LOAEL [4, 29]: 25 mg/kg/day | NEL [4, 30]: 0.5 mg/kg/day | NOAEL [4, 30]: 3.5 mg/kg/day | LEL ([4]; systemic / pathology microscopic / mammary gland / adenocarcinoma): 3.5 mg/kg/day | LEL [5, 31]: 5 mg/kg/day | LOAEL [5, 31]: 100 mg/kg/day | NEL [5, 31]: < 5 mg/kg/day | NOAEL [5, 31]: 25 mg/kg/day | LEL ([5]; group: maternal, reproductive / reproductive performance / aborted / aborted): 25 mg/kg/day | NEL [5, 32]: 5 mg/kg/day | NOAEL [5, 32]: 25 mg/kg/day | LOAEL ([5]; group: maternal, systemic / in life observation / body weight / body weight gain + systemic / in life observation / food consumption / food consumption): 100 mg/kg/day | LOAEL ([6]; systemic / in life observation / body weight / body weight gain): 194 mg/kg/day | LEL [6, 33]: 194 mg/kg/day | NEL [6, 33]: 38.4 mg/kg/day | NOAEL [6, 33]: 38.4 mg/kg/day | LEL [7]: 33.6 mg/kg/day | LOAEL [7]: 33.6 mg/kg/day | NEL [7]: 4.97 mg/kg/day | NOAEL [7]: 4.97 mg/kg/day | LEL [8, 27]: 75 mg/kg/day | LOAEL [8, 27]: 75 mg/kg/day | NEL [8, 27]: 5 mg/kg/day | NOAEL [8, 27]: 5 mg/kg/day | LEL [8, 34]: 75 mg/kg/day | LOAEL [8, 34]: 75 mg/kg/day | NEL [8, 34]: 5 mg/kg/day | NOAEL [8, 34]: 5 mg/kg/day | LEL [9]: 34.9 mg/kg/day | LOAEL [9]: 34.9 mg/kg/day | NEL [9]: 3.2 mg/kg/day | NOAEL [9]: 3.2 mg/kg/day | LEL [10, 35]: 0.659 mg/kg/day | NEL [10, 35]: < 0.659 mg/kg/day | LOAEL ([10]; systemic / in life observation / body weight / body weight + systemic / in life observation / body weight / body weight gain): 34 mg/kg/day | NOAEL ([10]; systemic / in life observation / body weight / body weight + systemic / in life observation / body weight / body weight gain + systemic / …): 3.3 mg/kg/day | LEL [11]: 25 mg/kg/day | LOAEL [11]: 25 mg/kg/day | NEL [11]: 3.5 mg/kg/day | NOAEL [11]: 3.5 mg/kg/day | LEL [12]: 24.1 mg/kg/day | LOAEL [12]: 24.1 mg/kg/day | NEL [12]: 3.61 mg/kg/day | NOAEL [12]: 3.61 mg/kg/day

CN(C)C(=O)NC1(c2ccccc2)CCN(CCC[C@]2(c3ccc(Cl)c(Cl)c3)CCCN(C(=O)c3ccccc3)C2)CC1
LOAEL [13, 36]: > 360 mg/kg/day | NOAEL [13, 36]: ≥ 360 mg/kg/day | LEL [13, 37]: 40 mg/kg/day | NEL [13, 37]: < 40 mg/kg/day | LEL [14, 38]: 25 mg/kg/day | NEL [14, 38]: < 25 mg/kg/day | LOAEL [14, 39]: > 250 mg/kg/day | NOAEL [14, 39]: ≥ 250 mg/kg/day | LEL [15, 40]: 200 mg/kg/day | LOAEL [15, 40]: > 200 mg/kg/day | NEL [15, 40]: 75 mg/kg/day | NOAEL [15, 40]: ≥ 200 mg/kg/day | LEL [15, 41]: 200 mg/kg/day | LOAEL [15, 41]: 200 mg/kg/day | NEL [15, 41]: 75 mg/kg/day | NOAEL [15, 41]: 75 mg/kg/day | LEL [16]: 50 mg/kg/day | LOAEL [16]: > 100 mg/kg/day | NEL [16]: < 50 mg/kg/day | NOAEL [16]: ≥ 100 mg/kg/day | LEL [17, 42]: 150 mg/kg/day | LOAEL [17, 42]: > 150 mg/kg/day | NEL [17, 42]: 75 mg/kg/day | NOAEL [17, 42]: ≥ 150 mg/kg/day | LEL [17, 43]: 150 mg/kg/day | LOAEL [17, 43]: > 150 mg/kg/day | NEL [17, 43]: 75 mg/kg/day | NOAEL [17, 43]: ≥ 150 mg/kg/day | LOAEL [18, 44]: > 250 mg/kg/day | NEL [18, 44]: 75 mg/kg/day | NOAEL [18, 44]: ≥ 250 mg/kg/day | LEL [18, 42]: 150 mg/kg/day | LOAEL [18, 45]: > 250 mg/kg/day | NOAEL [18, 45]: ≥ 250 mg/kg/day | LEL [18, 43]: 75 mg/kg/day | NEL [18, 43]: < 75 mg/kg/day | LEL [19, 40]: 250 mg/kg/day | LOAEL [19, 40]: > 250 mg/kg/day | NEL [19, 40]: < 250 mg/kg/day | NOAEL [19, 40]: ≥ 250 mg/kg/day | LEL [19, 46]: 250 mg/kg/day | LOAEL [19, 46]: > 250 mg/kg/day | NEL [19, 46]: < 250 mg/kg/day | NOAEL [19, 46]: ≥ 250 mg/kg/day | LOAEL [20, 36]: > 90 mg/kg/day | NOAEL [20, 36]: ≥ 90 mg/kg/day | LEL [20, 47]: 10 mg/kg/day | NEL [20, 47]: < 10 mg/kg/day | LEL [21]: 75 mg/kg/day | LOAEL [21]: > 75 mg/kg/day | NEL [21]: 25 mg/kg/day | NOAEL [21]: ≥ 75 mg/kg/day | LOAEL [22, 36]: > 250 mg/kg/day | NEL [22, 36]: 25 mg/kg/day | NOAEL [22, 36]: ≥ 250 mg/kg/day | LEL ([22]; systemic / pathology gross / mammary gland / [other]): 75 mg/kg/day | LEL [23, 29]: 100 mg/kg/day | LOAEL [23, 29]: 100 mg/kg/day | NEL [23, 30]: 50 mg/kg/day | NOAEL [23, 30]: 50 mg/kg/day

CCOC(=O)C(O)(c1ccc(Cl)cc1)c1ccc(Cl)cc1 [Chlorobenzilate]
LOAEL [24, 48]: 480 mg/kg/day | NOAEL [24, 48]: < 480 mg/kg/day | LEL [24, 49]: 480 mg/kg/day | NEL [24, 49]: < 480 mg/kg/day | LOAEL [25, 50]: 80 mg/kg/day | NOAEL [25, 50]: < 80 mg/kg/day | LEL [25, 51]: 58.8 mg/kg/day | NEL [25, 51]: < 58.8 mg/kg/day
